Data reported in ChEMBL document CHEMBL1201862, “PubChem BioAssay data set” (2004).
Calls of active or inactive are those of the source.

Columns and labels:
[1] = inhibitors of Vif binding to APOBEC3G peptide, primary screen, biochemical, TR-FRET, GST-Vif 1-94, biotin-A3G peptide, dose response retest (AID 1117319); format: functional;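 further: TR-FRET signal of purified GST-Vif binding a biotinylated A3G peptide; inhibitors lower the FRET signal by blocking Vif and A3G binding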
[2] = target: T1, Oxysterols receptor LXR-beta (Homo sapiens, UniProt P55055); format: functional, cell-based;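 further: agonist activity at LXR measured by a cell-based luminescence readout across a dose range, run as a counterscreen for daf-12 agonists; HEK293 cells with Gal4-LXR fusion and GAL4-driven luciferase reporter; potency for activation of Gal4-LXR reporter so compounds are agonists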
T1 sequence (P55055 whole entry): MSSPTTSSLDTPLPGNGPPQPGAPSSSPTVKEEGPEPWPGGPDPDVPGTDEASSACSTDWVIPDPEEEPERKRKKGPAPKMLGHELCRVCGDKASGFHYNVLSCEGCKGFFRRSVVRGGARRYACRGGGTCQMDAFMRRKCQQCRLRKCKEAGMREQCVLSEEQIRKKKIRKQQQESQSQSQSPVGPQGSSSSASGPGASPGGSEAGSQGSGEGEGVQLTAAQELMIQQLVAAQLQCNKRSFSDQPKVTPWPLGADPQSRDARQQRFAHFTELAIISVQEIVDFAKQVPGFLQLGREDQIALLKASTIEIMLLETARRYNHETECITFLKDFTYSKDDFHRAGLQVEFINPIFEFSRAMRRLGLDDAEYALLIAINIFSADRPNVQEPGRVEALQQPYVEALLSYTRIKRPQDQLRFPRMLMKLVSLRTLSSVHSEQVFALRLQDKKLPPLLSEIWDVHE

[3] = Luminescence Cell-Based Dose Response HTS to Identify Activators of Luciferase Translation or Activity in H4 […] Cells. [Related pubchem assays: 1829 (Project Summary), 1814 (Primary HTS)]; format: functional
[4] = Luminescence Cell-Based Dose Confirmation HTS to Identify Activators of 5'UTR Stem-Loop Driven Alpha-Synuclein mRNA Translation in H4 Neuroglioblastoma Cells. [Related pubchem assays: 1829 (Project Summary), 1814 (Primary HTS)]; format: functional
[5] = target: T2, Zinc finger protein mex-5 (Caenorhabditis elegans, UniProt Q9XUB2); assay: MEX-5/TCR-2 RNA interaction inhibitors, dose response, biochemical, C. elegans, fluorescence polarization (AID 1960)
T2 sequence (Q9XUB2 whole entry): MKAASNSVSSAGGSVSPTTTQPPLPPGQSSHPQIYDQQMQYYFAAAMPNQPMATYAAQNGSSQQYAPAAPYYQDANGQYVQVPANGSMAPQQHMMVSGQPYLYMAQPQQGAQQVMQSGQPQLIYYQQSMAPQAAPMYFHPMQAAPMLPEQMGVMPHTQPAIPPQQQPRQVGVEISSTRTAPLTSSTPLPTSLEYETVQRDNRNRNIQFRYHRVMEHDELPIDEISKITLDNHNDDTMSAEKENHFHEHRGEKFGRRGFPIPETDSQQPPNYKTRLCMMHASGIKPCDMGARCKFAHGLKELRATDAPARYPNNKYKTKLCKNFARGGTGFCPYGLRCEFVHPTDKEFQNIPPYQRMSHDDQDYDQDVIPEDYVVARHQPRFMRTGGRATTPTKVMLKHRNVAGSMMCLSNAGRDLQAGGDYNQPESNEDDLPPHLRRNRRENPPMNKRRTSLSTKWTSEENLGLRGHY

Major prion protein = Major prion protein (Homo sapiens, UniProt P04156); format: functional, cell-based
[6] = target: T3, RNA-binding protein pos-1 (Caenorhabditis elegans, UniProt G5EF15); assay: inhibitors of POS-1/mex-3 RNA binding, dose response, biochemical, fluorescence polarization (AID 1964);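 further: purified POS-1 fused to maltose binding protein made in E. coli; potency of compounds blocking POS-1 binding to fluorescent RNA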
T3 sequence (G5EF15 whole entry): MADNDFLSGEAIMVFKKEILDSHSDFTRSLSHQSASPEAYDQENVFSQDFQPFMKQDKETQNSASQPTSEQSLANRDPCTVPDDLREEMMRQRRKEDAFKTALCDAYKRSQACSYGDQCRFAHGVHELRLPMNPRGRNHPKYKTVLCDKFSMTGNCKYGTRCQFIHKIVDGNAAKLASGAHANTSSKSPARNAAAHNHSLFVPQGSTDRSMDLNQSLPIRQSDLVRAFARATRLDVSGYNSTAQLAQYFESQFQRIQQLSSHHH

Caspase-3 = target: T4, Caspase-3 (Homo sapiens, UniProt P42574); format: functional;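 further: Dose-response selectivity test against caspase-3 for candidate inhibitors of sentrin-specific proteases (SENPs)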
T4 sequence (P42574 whole entry): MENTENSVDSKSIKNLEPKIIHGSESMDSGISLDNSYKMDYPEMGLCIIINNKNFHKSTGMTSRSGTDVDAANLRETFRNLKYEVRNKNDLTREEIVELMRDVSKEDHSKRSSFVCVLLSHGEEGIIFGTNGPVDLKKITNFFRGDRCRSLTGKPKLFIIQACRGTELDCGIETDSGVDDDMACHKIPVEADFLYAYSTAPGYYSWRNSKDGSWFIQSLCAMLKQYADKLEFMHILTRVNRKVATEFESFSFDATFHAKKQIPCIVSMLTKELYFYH

[7] = target: T5, Sentrin-specific protease 7 (Homo sapiens, UniProt Q9BQF6); format: functional;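 further: Luminescence-based dose-response confirmation of ultra-high-throughput screening hits, measuring inhibition of SENP7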
T5 sequence (Q9BQF6 whole entry): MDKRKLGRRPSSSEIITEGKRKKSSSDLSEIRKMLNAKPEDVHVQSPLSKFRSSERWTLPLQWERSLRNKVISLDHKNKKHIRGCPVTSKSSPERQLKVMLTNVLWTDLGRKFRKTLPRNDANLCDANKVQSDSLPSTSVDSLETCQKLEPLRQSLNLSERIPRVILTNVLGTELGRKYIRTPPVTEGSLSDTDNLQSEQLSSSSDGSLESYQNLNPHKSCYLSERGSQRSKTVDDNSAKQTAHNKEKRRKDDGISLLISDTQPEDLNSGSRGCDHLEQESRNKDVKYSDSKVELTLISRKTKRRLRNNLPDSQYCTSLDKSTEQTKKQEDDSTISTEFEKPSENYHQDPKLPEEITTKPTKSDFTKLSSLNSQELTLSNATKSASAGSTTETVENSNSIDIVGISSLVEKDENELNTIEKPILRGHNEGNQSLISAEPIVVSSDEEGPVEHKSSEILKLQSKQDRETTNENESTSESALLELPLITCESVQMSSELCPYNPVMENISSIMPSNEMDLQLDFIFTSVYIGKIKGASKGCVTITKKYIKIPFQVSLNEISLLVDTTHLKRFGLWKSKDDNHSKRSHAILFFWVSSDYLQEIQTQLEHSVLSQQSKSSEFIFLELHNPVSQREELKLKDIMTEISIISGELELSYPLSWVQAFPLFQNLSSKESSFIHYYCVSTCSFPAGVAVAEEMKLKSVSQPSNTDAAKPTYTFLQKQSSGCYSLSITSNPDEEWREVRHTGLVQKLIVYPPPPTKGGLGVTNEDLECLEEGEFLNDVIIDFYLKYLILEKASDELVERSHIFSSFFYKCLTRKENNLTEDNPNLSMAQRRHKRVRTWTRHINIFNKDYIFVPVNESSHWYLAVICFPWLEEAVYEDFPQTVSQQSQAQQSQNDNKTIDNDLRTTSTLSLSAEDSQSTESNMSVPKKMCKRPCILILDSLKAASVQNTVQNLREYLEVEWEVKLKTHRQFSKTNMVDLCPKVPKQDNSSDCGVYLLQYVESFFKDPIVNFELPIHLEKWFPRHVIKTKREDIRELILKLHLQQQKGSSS

[8] = target: FAD-linked sulfhydryl oxidase ALR (Homo sapiens, UniProt P55789); assay: inhibitors of human ALR sulfhydryl oxidase, dose response, biochemical, H2O2 detection, luminescence, cherry-pick (AID 493248)
[9] = target: T6, Sentrin-specific protease 6 (Homo sapiens, UniProt Q9GZR1); format: functional;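 further: Luminescence-based dose-response confirmatory assay of SENP6 inhibition, following up an ultra-high-throughput screen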
T6 sequence (Q9GZR1 whole entry): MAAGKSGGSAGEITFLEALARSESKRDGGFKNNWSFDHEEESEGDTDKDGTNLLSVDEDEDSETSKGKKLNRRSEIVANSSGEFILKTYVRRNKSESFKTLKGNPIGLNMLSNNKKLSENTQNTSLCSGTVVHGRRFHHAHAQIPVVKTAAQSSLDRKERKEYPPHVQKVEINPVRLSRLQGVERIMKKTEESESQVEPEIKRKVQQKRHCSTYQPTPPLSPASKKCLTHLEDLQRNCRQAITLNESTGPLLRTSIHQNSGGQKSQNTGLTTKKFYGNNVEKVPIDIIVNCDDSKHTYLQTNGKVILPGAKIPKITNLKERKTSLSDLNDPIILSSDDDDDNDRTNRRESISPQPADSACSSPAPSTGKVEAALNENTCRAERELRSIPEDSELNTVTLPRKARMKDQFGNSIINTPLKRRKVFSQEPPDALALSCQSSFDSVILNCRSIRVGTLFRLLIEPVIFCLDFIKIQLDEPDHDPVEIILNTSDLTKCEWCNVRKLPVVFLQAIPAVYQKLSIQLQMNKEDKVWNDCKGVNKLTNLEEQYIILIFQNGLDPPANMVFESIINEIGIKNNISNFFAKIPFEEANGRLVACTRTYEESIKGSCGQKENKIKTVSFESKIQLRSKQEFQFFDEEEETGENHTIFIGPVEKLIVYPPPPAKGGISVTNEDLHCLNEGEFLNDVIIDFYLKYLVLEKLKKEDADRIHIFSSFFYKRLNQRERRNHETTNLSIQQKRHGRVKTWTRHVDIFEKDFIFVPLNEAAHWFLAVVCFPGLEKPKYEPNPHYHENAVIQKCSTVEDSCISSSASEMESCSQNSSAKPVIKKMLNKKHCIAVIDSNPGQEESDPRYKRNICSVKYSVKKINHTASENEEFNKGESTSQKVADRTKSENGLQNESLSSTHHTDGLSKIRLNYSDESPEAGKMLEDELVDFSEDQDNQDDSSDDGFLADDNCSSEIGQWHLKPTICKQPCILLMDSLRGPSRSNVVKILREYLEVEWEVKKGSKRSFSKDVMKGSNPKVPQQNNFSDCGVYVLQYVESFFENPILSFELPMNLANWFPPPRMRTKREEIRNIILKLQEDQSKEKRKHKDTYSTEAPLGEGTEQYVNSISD

[10] = target: T7, Sentrin-specific protease 8 (Homo sapiens, UniProt Q96LD8); format: functional;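 further: luminescence read-out of SENP8 inhibition, dose-response confirmation following an ultra-high-throughput screen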
T7 sequence (Q96LD8 whole entry): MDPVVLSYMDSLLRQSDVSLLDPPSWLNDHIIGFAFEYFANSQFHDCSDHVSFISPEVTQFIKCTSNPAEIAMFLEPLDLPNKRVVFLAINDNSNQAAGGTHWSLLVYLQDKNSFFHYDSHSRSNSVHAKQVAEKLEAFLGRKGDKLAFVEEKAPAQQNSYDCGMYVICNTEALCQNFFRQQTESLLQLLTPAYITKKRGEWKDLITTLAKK

[11] = target: Endoplasmic reticulum aminopeptidase 1 (Homo sapiens, UniProt Q9NZ08); assay: ERAP1 aminopeptidase inhibitors, dose response, biochemical, cherry-pick, set 2, plate reader (AID 743314)

**Q.** Which IC50 [1] does the source give for `CCCS(=O)(=O)NCc1cn2c(C)csc2n1` here?
**A.** > 100 µM (active)

**Q.** What about the EC50 [2] of the same molecule?
**A.** > 67.5 µM (inactive)

**Q.** And the EC50 [3]?
**A.** 12.6 µM (active)

**Q.** What about the EC50 [4] of the same molecule?
**A.** 6.17 µM (active)

**Q.** With `Cc1nnc(S)c2nn(-c3cccc(Cl)c3)c(C)c12` as the molecule, how does the IC50 (cells) read?
**A.** > 138 µM (inactive)

**Q.** What about the EC50 [5] of the same molecule?
**A.** 153 µM (active)

**Q.** And the IC50 (Major prion protein)?
**A.** 5.53 µM (active)

**Q.** And the EC50 [6]?
**A.** 137 µM (active)

**Q.** Which results are given for `Cc1cccc(N=Nc2cnc(N)s2)c1`?
**A.** IC50 (Caspase-3): 34.5 µM (active); IC50 [7]: 9.64 µM (active); AC50 [8]: 1.29 µM (active); IC50 [9]: 25.8 µM (active); IC50 [10]: 19.1 µM (active); EC50 [2]: > 67.6 µM (inactive)

**Q.** Which EC50 [2] does the source give for `Cc1ccc(-c2cn3cccnc3n2)cc1` here?
**A.** > 67.6 µM (inactive)

**Q.** Which AC50 [11] does the source give for `COC(=O)[C@H]1[C@H](CO)[C@H]2Cn3c(ccc(/C=C/c4ccccc4)c3=O)[C@@H]1N2CC1CCCC1` here?
**A.** 11.9 µM (active)

**Q.** Which AC50 [11] does the source give for `CCCN1[C@@H]2c3ccc(/C=C/c4ccccc4)c(=O)n3C[C@H]1[C@H](CO)[C@H]2C(=O)NCc1ccccn1` here?
**A.** 6.65 µM (active)
